Reference: the supplement of paper PMC10307832

What was measured:
Experiment in all cases: relative viability (nuclei count vs DMSO), 5 days (fraction); higher = more cells survive
[1] = compound: O=C(Nc1c[nH]nc1-c1nc2ccc(CN3CCOCC3)cc2[nH]1)NC1CC1 [AT9283] + O=C(c1cc(Cc2n[nH]c(=O)c3ccccc23)ccc1F)N1CCN(C(=O)C2CC2)CC1 [Olaparib] (partner 8 µM)
How it was run: (§1)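 One day after seeding in 1536-well plates, lung cancer cell lines were dosed by pin tool. Dosing was either single-drug or a fixed anchor-drug dose plus five library-drug doses (not always all listed) in √10 steps. After 5 days, nuclei were stained in one fix-and-stain step and counted on 4× images, and relative viability is the nuclei count of treated wells over that of vehicle wells, given as the median of duplicate plates.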

[2] = compound: C#Cc1cccc(Nc2ncnc3cc(OCCOC)c(OCCOC)cc23)c1 [Erlotinib] + N=C(N)NC(=N)NCCc1ccccc1 [Phenformin] (partner 250 µM)
How it was run: as §1

[3] = compound: O=C(Nc1c[nH]nc1-c1nc2ccc(CN3CCOCC3)cc2[nH]1)NC1CC1 [AT9283] + CC(=O)Nc1cccc(-n2c(=O)n(C3CC3)c(=O)c3c(Nc4ccc(I)cc4F)n(C)c(=O)c(C)c32)c1 [Trametinib] (partner 0.02 µM)
How it was run: as §1

[4] = compound: C#Cc1cccc(Nc2ncnc3cc(OCCOC)c(OCCOC)cc23)c1 [Erlotinib] + C[C@]1(O)C[C@@H](c2nc(-c3ccc4ccc(-c5ccccc5)nc4c3)c3c(N)nccn32)C1 [Linsitinib] (partner 1 µM)
How it was run: as §1

[5] = compound: O=C(Nc1c[nH]nc1-c1nc2ccc(CN3CCOCC3)cc2[nH]1)NC1CC1 [AT9283] + C[C@]1(O)C[C@@H](c2nc(-c3ccc4ccc(-c5ccccc5)nc4c3)c3c(N)nccn32)C1 [Linsitinib] (partner 1 µM)
How it was run: as §1

Row | Cell Line | relative viability ([1]; first compound 0.003 µM) | relative viability ([1]; first compound 0.03 µM) | relative viability ([1]; first compound 0.09487 µM) | relative viability ([1]; first compound 0.3 µM) | relative viability ([2]; first compound 0.02 µM) | relative viability ([2]; first compound 0.2 µM) | relative viability ([2]; first compound 0.6325 µM) | relative viability ([2]; first compound 2 µM) | relative viability ([3]; first compound 0.003 µM) | relative viability ([3]; first compound 0.03 µM) | relative viability ([3]; first compound 0.09487 µM) | relative viability ([3]; first compound 0.3 µM) | relative viability ([4]; first compound 0.02 µM) | relative viability ([4]; first compound 0.2 µM) | relative viability ([4]; first compound 0.6325 µM) | relative viability ([4]; first compound 2 µM) | relative viability ([5]; first compound 0.003 µM) | relative viability ([5]; first compound 0.03 µM) | relative viability ([5]; first compound 0.09487 µM) | relative viability ([5]; first compound 0.3 µM)
1 | LU99A | 0.258 | 0.214 | 0.14 | 0.123 | 0.942 | 0.794 | 0.886 | 0.841 | 0.539 | 0.327 | 0.178 | 0.217 | 0.616 | 0.497 | 0.457 | 0.446 | 0.409 | 0.196 | 0.165 | 0.165
2 | LXF-289 | 1.13 | 0.98 | 0.0877 | 0.0796 | 0.54 | – | 0.496 | 0.476 | 0.695 | 0.686 | 0.254 | 0.145 | 0.966 | 0.921 | 0.934 | 0.874 | 1 | 0.47 | 0.132 | 0.12
3 | NCI-H23 | 0.334 | 0.297 | 0.3 | 0.211 | – | 0.662 | 0.684 | 0.72 | 0.377 | 0.291 | 0.281 | 0.19 | 0.643 | 0.506 | 0.752 | 0.604 | 0.801 | 0.338 | 0.232 | 0.145
4 | NCI-H322M | 0.834 | 0.58 | 0.518 | 0.453 | 0.816 | 0.592 | 0.539 | 0.421 | 0.486 | 0.49 | 0.407 | 0.405 | 0.8 | 0.727 | 0.512 | 0.337 | 0.932 | 0.682 | 0.478 | 0.425
5 | NCI-H358 | 0.513 | 0.202 | 0.091 | 0.105 | 0.349 | 0.277 | 0.234 | 0.178 | 0.144 | 0.105 | 0.081 | 0.0743 | 0.817 | 0.558 | 0.377 | 0.292 | 0.447 | 0.142 | 0.12 | 0.17
6 | NCI-H460 | 0.479 | 0.307 | 0.127 | 0.113 | 0.524 | 0.512 | 0.541 | 0.466 | 0.143 | 0.215 | 0.0758 | 0.0307 | 0.804 | 0.647 | – | 0.712 | 0.761 | 0.0766 | 0.0186 | 0.0256
7 | NCI-H520 | 0.32 | 0.205 | 0.223 | 0.22 | 0.751 | 0.525 | 0.646 | 0.706 | 0.719 | 0.276 | 0.291 | 0.149 | 0.98 | 0.915 | 1.03 | 0.965 | 0.926 | 0.37 | 0.291 | 0.181
